Measurements from patent US12622910B2, “Inhibitors of Bruton's tyrosine kinase and methods of their use” (Janssen Pharmaceutica NV, priority 2021, dated 2026).

Legend:
[1] = molecular target: T1, CYP3A4 (Homo sapiens, UniProt P08684); experiment: Metabolism by recombinant CYPs; format: in vitro ADME; conditions: 1 μM, 100 pmol P450/mL, 1 mM NADPH
T1 construct: with specific CYP probe substrates in human liver microsomes; from tissue; host or cells: human liver microsomes
Experimental: To assess the potential of the compound of Formula (III) to be a time-dependent inhibitor of CYP3A, human liver microsomes were preincubated for 30 minutes at 37° C. with the compound of Formula (III) at concentrations up to 10 μM, and CYP3A activity was measured using testosterone as a probe substrate. […] The potential of the compound of Formula (III) to induce CYPs at the transcriptional level was assessed using Puracyp™ DPX2 (CYP3A4, PXR) and DRE (CYP1A2, AhR) luciferase-reporter cell lines; rifampicin and omeprazole were used as positive controls for CYP3A and CYP1A induction, respectively. The activation by the compound of Formula (III) was <20% of positive control values for PXR (6.6% and 14.1% at 1 and 10 μM change, respectively) or AhR (0.1% and 0.3% change, respectively). […] Potential involvement of various CYP isoforms in the metabolism of the compound of Formula (III) was investigated by measuring the parent compound remaining after 1-hour incubation with the compound of Formula (III) (1 μM) with recombinant CYPs (rCYPs) at 100 pmol P450/mL in the presence of 1 mM NADPH at 37° C. The only isozyme that produced notable the compound of Formula (III) turnover with <1% parent remaining after 1-hour incubation was CYP3A4 (FIG. 24). […]

[2] = molecular target: T2, TEC (Homo sapiens, UniProt P42680); experiment: ActivX KiNativ native kinase profiling, Ramos cell lysates; format: binding
T2 construct: purchased Eurofins Scientific
T2 sequence (P42680 1-631): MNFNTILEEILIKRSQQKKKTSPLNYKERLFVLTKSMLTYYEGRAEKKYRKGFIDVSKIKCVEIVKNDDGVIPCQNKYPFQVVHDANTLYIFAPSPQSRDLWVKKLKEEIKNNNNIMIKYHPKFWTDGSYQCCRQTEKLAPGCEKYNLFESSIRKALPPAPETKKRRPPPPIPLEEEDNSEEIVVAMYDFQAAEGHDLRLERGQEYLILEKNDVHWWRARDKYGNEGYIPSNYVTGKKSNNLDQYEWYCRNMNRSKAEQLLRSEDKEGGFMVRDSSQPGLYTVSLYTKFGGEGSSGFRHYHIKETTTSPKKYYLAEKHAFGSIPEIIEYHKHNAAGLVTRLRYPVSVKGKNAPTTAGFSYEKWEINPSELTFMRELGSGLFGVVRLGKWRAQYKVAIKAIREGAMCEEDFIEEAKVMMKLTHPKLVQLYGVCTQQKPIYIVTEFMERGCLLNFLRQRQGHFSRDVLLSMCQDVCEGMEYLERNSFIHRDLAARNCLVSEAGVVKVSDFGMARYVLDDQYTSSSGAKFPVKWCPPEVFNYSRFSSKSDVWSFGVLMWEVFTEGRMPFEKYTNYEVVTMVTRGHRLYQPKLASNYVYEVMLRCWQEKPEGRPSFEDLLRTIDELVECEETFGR
Experimental: (§1) RESULTS AND DISCUSSION—Selectivity—The compound of Formula (III) was evaluated in three selectivity panels to assess the potential for off-target pharmacology (Table 8). […] The kinase off-target profile of The compound of Formula (III) was assessed in a full human wild-type panel using radiometric kinase activity assays (KinaseProfiler™ and IC50Profiler™; Eurofins Scientific) (Table 9; FIG. 23). The compound of Formula (III) inhibited 4/278 kinases >50% at 1 micromolar, identifying BTK and the three other kinases having analogous Cys residues with the potential for covalent inhibition (BMX, TEC, BLK). […]. The cellular kinase selectivity of The compound of Formula (III) was established in native Ramos B cell kinome assays (KiNativ™; ActivX) confirmed BTK as the primary target with inhibition of BLK and TEC inhibition detected (Table 10).

[3] = molecular target: T3, BLK (Homo sapiens, UniProt P51451); experiment: as above; format: binding; conditions: activation loop labelling
T3 construct: purchased Eurofins Scientific
Experimental: as §1

[4] = Blood-to-plasma concentration ratio; format: in vitro ADME; conditions: mouse, fresh blood
[5] = system: OCI-LY10 xenografts; experiment: OCI-LY10 human ABC-DLBCL xenograft efficacy; format: in vivo, female NSG mice; conditions: Day 45
From the text: FIG. 20 depicts the effect of the compound of Formula (III) on growth of established OCI-LY10 human ABC-DLBCL xenografts in mice PEG400/PVP-VA64, Polyethylene glycol 400/N-vinylpyrrolidone and vinyl acetate 64; SEM, standard error of the mean. Group tumor volumes are graphed as the mean±SEM. Bar below x-axis indicates the treatment period. Groups are plotted while at least ⅔ of the animals remained on the study. Mice were implanted SC on the right flank on Day 0. Tumors were established 33 days post implantation, mice were randomized into experimental groups and dosed orally twice or once daily for 3 weeks (n=10/group).
To evaluate the duration of signaling shutdown and occupancy of BTK protein after compound administration, we determined the amount of free BTK protein in OCI-LY10 DLBCL tumor lysates harvested using an BTK occupancy assay. […] BTK protein occupancy levels remained high with 71%, 94% and 96%, respectively, at 12 hours and 70%, 91% and 85%, respectively after 24 hours. (FIG. 19). The antitumor efficacy of compound of Formula (III) was assessed in mice bearing established SC OCI-LY10 human CD79b mutant DLBCL xenografts in female NSG mice, dosed either once (QD) or twice (BID) a day. Analysis of tumor growth inhibition was performed 14 days into the 21-day treatment period (Day 45) as that was the last day when 2/3 of the vehicle controls remained on the study. Compound of Formula (III) induced tumor growth inhibition in the OCI-LY10 model at all dose levels. […] Taken together, the in vivo data support a first in-human trial of the compound of Formula (III) in combination with Venetoclax in patients with B cell lymphomas.

T3 sequence (P51451 whole entry): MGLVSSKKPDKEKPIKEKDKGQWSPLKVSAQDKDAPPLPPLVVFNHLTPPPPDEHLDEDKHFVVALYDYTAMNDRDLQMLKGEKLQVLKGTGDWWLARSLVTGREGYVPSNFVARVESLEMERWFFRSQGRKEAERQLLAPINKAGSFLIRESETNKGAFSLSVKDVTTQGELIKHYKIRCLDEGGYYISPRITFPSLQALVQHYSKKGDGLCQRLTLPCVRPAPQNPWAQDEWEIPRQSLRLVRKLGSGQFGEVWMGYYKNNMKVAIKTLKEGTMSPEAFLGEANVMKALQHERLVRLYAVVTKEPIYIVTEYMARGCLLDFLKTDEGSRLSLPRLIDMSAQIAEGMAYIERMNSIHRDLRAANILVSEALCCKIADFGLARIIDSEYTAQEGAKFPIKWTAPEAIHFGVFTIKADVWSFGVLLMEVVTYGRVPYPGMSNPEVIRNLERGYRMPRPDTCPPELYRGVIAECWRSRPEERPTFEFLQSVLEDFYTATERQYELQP
T1 sequence (P08684 whole entry): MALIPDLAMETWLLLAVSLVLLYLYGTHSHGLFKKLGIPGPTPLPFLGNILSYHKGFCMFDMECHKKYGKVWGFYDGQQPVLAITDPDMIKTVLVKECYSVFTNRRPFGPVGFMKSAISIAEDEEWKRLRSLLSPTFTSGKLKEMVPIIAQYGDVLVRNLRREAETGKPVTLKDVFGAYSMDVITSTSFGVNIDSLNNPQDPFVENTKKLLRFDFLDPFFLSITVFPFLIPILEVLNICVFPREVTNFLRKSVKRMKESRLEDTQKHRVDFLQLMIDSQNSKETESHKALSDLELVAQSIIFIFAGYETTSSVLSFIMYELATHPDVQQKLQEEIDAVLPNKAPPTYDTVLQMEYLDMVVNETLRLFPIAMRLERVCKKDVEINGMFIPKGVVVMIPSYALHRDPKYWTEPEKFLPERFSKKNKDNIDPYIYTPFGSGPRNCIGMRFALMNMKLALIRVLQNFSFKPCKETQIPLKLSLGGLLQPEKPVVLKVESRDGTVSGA

For `C=CC(=O)N[C@H]1CCC[C@H]1NC(=O)c1sc2nccc3c2c1NC(=O)N3c1cnc(CC(C)C)cc1C` (atropisomer, axis not shown) [compound of Formula (III), N-((1R,2S)-2-Acrylamidocyclopentyl)-5-(S)-(6-isobutyl-4-methylpyridin-3-yl)-4-oxo-4,5-dihydro-3H-1-thia-3,5,8-triazaacenaphthylene-2-carboxamide], the “parent remaining after 1-hour incubation” value [1] was < 1%, the inhibition at 1 µM [2] was 77.6% and the inhibition at 1 µM [3] was 61.9%. It also gave a blood plasma ratio at 1 μM [4] of 0.84, a TGI ([5]; 5 mg/kg BID) of 26% and a ΔTGI ([5]; 5 mg/kg BID) of 34%. It also gave a TGI ([5]; 10 mg/kg QD) of 24%, a ΔTGI ([5]; 10 mg/kg QD) of 30% and a TGI ([5]; 15 mg/kg BID) of 51%. It also gave a ΔTGI ([5]; 15 mg/kg BID) of 66%, a TGI ([5]; 30 mg/kg QD) of 35% and a ΔTGI ([5]; 30 mg/kg QD) of 45%. For the same compound, the TGI ([5]; 50 mg/kg BID) was 78%, the ΔTGI ([5]; 50 mg/kg BID) was 102% and the TGI ([5]; 100 mg/kg QD) was 51%. It also gave a ΔTGI ([5]; 100 mg/kg QD) of 65%.
